TGI data for eleven molecules are collected here from PubChem BioAssay (NCI).

Molecules are shown by their SMILES.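 Tested at 5 concentrations; 48 h exposure; 96-well plates; endpoints linearly interpolated, else capped at highest concentration. TGI: concentration producing complete growth inhibition.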

Test systems include 786-0 renal; A498 renal; BT-549 breast; CCRF-CEM leukemia; HCC-2998 colon; HCT-116 colon; NCI-H460 lung; OVCAR-3 ovarian; SF-295 CNS; TK-10 renal.
Common to all, as to assay: inhibition of tumour cell growth, NCI panel, 48 h

In the case of `NC(=O)c1csc(C2(O)COC(CO)C2O)n1` (stereo not given), the TGI in the assay with 786-0 renal, in the assay with A498 renal, in the assay on BT-549 breast, with CCRF-CEM leukemia, with HCC-2998 colon and with HCT-116 colon was over 100 µM throughout. Also, the TGI with NCI-H460 lung, in the assay with OVCAR-3 ovarian, in the assay on SF-295 CNS and in the assay on TK-10 renal was over 100 µM in each case.
Consider `Cc1[nH]c(=O)nc(NCCNCCO)c1C(=O)Nc1cccc2cc3ccccc3cc12`, for which the TGI in the assay with 786-0 renal, in the assay with A498 renal, with BT-549 breast, in the assay on CCRF-CEM leukemia, in the assay with HCC-2998 colon and with HCT-116 colon was over 100 µM throughout. Also, the TGI in the assay on NCI-H460 lung, in the assay with OVCAR-3 ovarian, with SF-295 CNS and with TK-10 renal was over 100 µM throughout.
Consider `C[C@]12CCC(=O)[C@@H](CCC3=CC(=O)C=CC3=O)[C@@H]1CCC2=O`, for which the TGI with 786-0 renal was 41.1 µM; with A498 renal it was 39.6 µM; in the assay on BT-549 breast, 30.2 µM; with CCRF-CEM leukemia it was over 100 µM; in the assay with HCC-2998 colon, 31.4 µM; in the assay with HCT-116 colon, over 50.5 µM. In addition, the TGI worked out at 31.4 µM in the assay with NCI-H460 lung, 36 µM with OVCAR-3 ovarian, 36.7 µM in the assay on SF-295 CNS and 30.4 µM in the assay on TK-10 renal.
As for `CC(C)C(=O)C(C)(C)CCc1ccccn1`, the TGI in the assay on 786-0 renal, in the assay on A498 renal, with BT-549 breast, in the assay with CCRF-CEM leukemia, in the assay on HCC-2998 colon and with HCT-116 colon was over 100 µM throughout. In addition, the TGI in the assay on NCI-H460 lung, in the assay with OVCAR-3 ovarian, in the assay with SF-295 CNS and with TK-10 renal was over 100 µM throughout.
For the molecule `CC(C)C(CC(=O)OCC(CO)OC(=O)CC(C(C)C)C(C)C)C(C)C` (stereo not given), the TGI in the assay on 786-0 renal was determined as 27.9 µM; in the assay with A498 renal, 29.8 µM; in the assay with BT-549 breast, 33.1 µM; with CCRF-CEM leukemia, 31.7 µM; with HCC-2998 colon, 30.9 µM; with HCT-116 colon, 33.4 µM. Also, the TGI in the assay with NCI-H460 lung amounted to 26.8 µM; in the assay on OVCAR-3 ovarian, 27.2 µM; in the assay with SF-295 CNS, 21.1 µM; with TK-10 renal it was 26.3 µM.
For the molecule `CS(=O)(=O)Nc1ccc2c(c1)N(S(C)(=O)=O)CC2CCl` (stereo not given), the TGI with 786-0 renal, in the assay with A498 renal, with BT-549 breast, in the assay with CCRF-CEM leukemia, with HCC-2998 colon and in the assay on HCT-116 colon was over 100 µM throughout. For the same molecule, the TGI in the assay on NCI-H460 lung, with OVCAR-3 ovarian, in the assay on SF-295 CNS and in the assay on TK-10 renal was over 100 µM in each case.
As for `C=C1C(OC2O[C@@H]3O[C@@]4(C)CC[C@H]5[C@H](C)CC[C@@H](C2=C)[C@@]35O4)O[C@@H]2O[C@@]3(C)CC[C@H]4[C@H](C)CC[C@@H]1[C@@]24O3` (stereo not given in full), the TGI with 786-0 renal, in the assay on A498 renal, with BT-549 breast, with CCRF-CEM leukemia, in the assay with HCC-2998 colon and in the assay with HCT-116 colon was over 50 µM throughout. In addition, the TGI in the assay on NCI-H460 lung, with OVCAR-3 ovarian, in the assay on SF-295 CNS and in the assay on TK-10 renal was over 50 µM throughout.
On to `Cc1ccc2c(c1)-c1c(C#N)c(N)nc(-c3ccc(Cl)cc3)c1CCS2(=O)=O`, for which the TGI in the assay with 786-0 renal is over 100 µM; in the assay on A498 renal it was over 60.5 µM; with BT-549 breast, over 100 µM; in the assay on CCRF-CEM leukemia, over 23.7 µM; in the assay with HCC-2998 colon, over 100 µM; in the assay with HCT-116 colon, over 100 µM. The TGI is over 100 µM with NCI-H460 lung, 44.4 µM in the assay on OVCAR-3 ovarian, over 100 µM in the assay with SF-295 CNS and over 100 µM in the assay with TK-10 renal.
`COc1cc(CC(C)NC(C)=O)cc(OC)c1` (stereo not given): the TGI with 786-0 renal, with A498 renal, in the assay on BT-549 breast, in the assay with CCRF-CEM leukemia, in the assay on HCC-2998 colon and in the assay on HCT-116 colon was over 100 µM throughout. In addition, the TGI with NCI-H460 lung, in the assay with OVCAR-3 ovarian, in the assay on SF-295 CNS and in the assay with TK-10 renal was over 100 µM in each case.
Turning to `CCC(O)(Cc1ccc(OC)cc1)c1ccc(OC)cc1` (stereo not given), the TGI in the assay with 786-0 renal, in the assay with A498 renal, with BT-549 breast, in the assay with CCRF-CEM leukemia, in the assay with HCC-2998 colon and in the assay with HCT-116 colon was over 100 µM in each case. Moreover, the TGI in the assay with NCI-H460 lung, in the assay on OVCAR-3 ovarian, in the assay with SF-295 CNS and with TK-10 renal was over 100 µM throughout.
Consider `COc1ccccc1CN=C1Nc2ccncc2S(=O)(=O)N1c1ccccc1`, for which the TGI with 786-0 renal, in the assay with A498 renal, in the assay with BT-549 breast, with CCRF-CEM leukemia, in the assay on HCC-2998 colon and in the assay with HCT-116 colon was over 100 µM in each case. Moreover, the TGI in the assay with NCI-H460 lung, in the assay with OVCAR-3 ovarian, in the assay with SF-295 CNS and in the assay on TK-10 renal was over 100 µM throughout.
